As a reminder, the melting point is the temperature, or range, at which the solid turns liquid. `CC(=O)OC(C)c1cccc2cc(C(=O)CBr)oc12` (stereo not given) had a melting point of 86 to 88 °C.
In the case of `CSc1nc(Cl)c(-c2ccc(C)cc2)c(Cl)n1`, the melting point is 74 to 78 °C.
Take `COc1ccc(C2=NNC(=O)CC2)cc1Cl`: the melting point was in the range of 194 to 195 °C.
`Cc1nc(-c2ccc(-c3cscn3)cc2)c(-c2ccc(S(N)(=O)=O)c(F)c2)o1` yielded a melting point of 116 to 118 °C.
`CC(C)S(=O)(=O)Nc1ccc([C@@H](C)C(=O)N[C@@H](C)C(N)=O)cc1`: the melting point was 132 to 135 °C.
Next, `CC(=O)C=Cc1cccc(N(C)C)c1`: 47 to 49 °C; `Nc1cccc(-c2cccnc2)n1`: 108 °C; `CCN1CCc2ccc(Nc3ncc(Cl)c(NCCCC(=O)NC)n3)cc2CC1`: 135 °C.
Next, `COc1ccc(C(=O)c2cccc(C(F)(F)F)c2)cc1C`: 56 to 59 °C.
`O=C(C=C(O)c1cccnc1)C1CCN(CCc2ccccc2)CC1` showed a melting point of 75 to 77 °C.
`Fc1cc(CC2(Cc3ccnc(F)c3)c3cccnc3-c3cccnc32)ccn1` registered a melting point of 134 to 135 °C.
Molecule `C=CCSc1ncn(C(=O)N(CC=C)CC=C)n1` displayed a melting point of 27 to 30 °C.
Take `CC(C)CC[C@@H]1[C@H](c2ccccc2)OC(=O)N1CCCN1CCCCC1` (racemic): the melting point was in the range of 111 to 112 °C.
For `Cc1cc(C)c(OC(=O)NC2CC2c2ccc(-c3ncn(-c4ccc(OC(F)(F)F)cc4)n3)cc2)c(C)c1` (stereo not given), the melting point is 199 to 202 °C.
As to `O=Cc1cccc(CF)n1`, the melting point worked out at 60 °C.
`Cc1noc2cc(F)c(-n3c(=O)cc(C(F)(F)F)n(C)c3=O)cc12` displayed a melting point of 158 to 159 °C.
Consider `COC(=O)C1=C(O)c2ccc(F)cc2S(=O)(=O)N1C`, for which the melting point was 191 °C.
Take `O=C(O)c1ccc(C=CC(=O)c2ccc(O)cc2)cc1`: the melting point was in the range of 300 to 302 °C.
As for `CNc1c(F)cc2c(=O)c(C(=O)O)cn(-c3nc(NCCO)c(F)cc3F)c2c1Cl`, the melting point is 201 to 205 °C.
As to `O=C(c1ccc(F)cc1)c1c(-c2ccc(OCCN3CCCC3)cc2)sc2c(O)cccc12`, the melting point was in the range of 138 to 142 °C.
`COc1cc(N)ccc1S(=O)(=O)n1c(=O)n(C2CCCCCC2)c2cc(Cl)ccc21` showed a melting point of 219 °C.
In turn, `O=C(OCCC1CC1)c1ncn2c1[C@@H]1CCCN1C(=O)c1c(Cl)cccc1-2` gave a melting point of 163 to 164 °C.
`COc1ccc2c(c1)CC[C@@H]1[C@@H]2CC[C@@]2(C)[C@H]1CCC21C=CCO1` (stereo not given in full): the melting point lay in the range of 159 to 161 °C.
Regarding `CC(O)/C=C/c1ccc(-c2ccccc2)cc1` (stereo not given), the melting point was in the range of 138 to 139 °C.
Next, `CC1=C(C)C(O)N(c2nnc(C(C)(C)C)s2)C1=O` (stereo not given): 179 to 182 °C; `CCOC(=O)c1c(O)c2cc(C)ccc2n(Cc2ccccc2)c1=O`: 113 °C.
Turning to `CC(C)C=CC1(C(F)(F)F)OCC(=O)Nc2ccc(F)c(F)c21` (stereo not given), the melting point lay within 159 to 160 °C.
Next, `COCO[C@@H](CCCCC1CCCCC1)CCc1ccc(C(C)(C)C)c(NC(=O)CC2c3ccccc3Oc3ccccc32)c1`: 71 to 73 °C.
Next, `c1ccc2nc3c(nc2c1)OCC1CCCCN31` (stereo not given): 141 to 143 °C.
Molecule `Fc1ccc(-c2nn3cccnc3c2-c2ccncc2)cc1` had a melting point of 194 °C.
The molecule `Cc1cc(C(=O)c2[nH]c3cc(Cl)ccc3c2NC(=O)CC(C)C)ccc1Cl` registered a melting point of 202 to 203 °C.
Molecule `CC(=O)OC1(c2nc3ccccc3s2)C=CC(=O)C=C1` registered a melting point of 101 °C.
Next, `CC(=O)N1CCN(Cc2ccc(O)cc2)CC1`: 130 to 132 °C.
As for `CCSC(=NC(=O)c1ccccc1)Nc1ccccc1F`, the melting point is 95 to 97 °C.
`Nc1ccccc1NC(=O)c1ccc(CNC(=O)c2[nH]c(-c3ccsc3)cc2-c2ccc(O)cc2)cc1` showed a melting point of 135 to 137 °C.
Molecule `O=C(O)C1=Cc2cc(F)c(N3CCC4(C3)OCCCO4)nc2N(c2ccc(F)cc2F)C1` came in with a melting point of 145 to 146 °C.
Consider `CC(Cn1ccnc1)Cn1c(=O)c2ccc(Cl)cc2n(C)c1=O` (stereo not given), for which the melting point is 206 to 209 °C.
As to `Cc1cccc(CC(=O)O)c1OCCCc1cn(-c2ccc(C(F)(F)F)cn2)nc1C(C)(C)C`, the melting point was in the range of 86 to 87 °C.
In turn, `CCCCN(CCCC)c1cc(=O)n(-c2ccc(S(=O)(=O)O)cc2)[nH]1` came in with a melting point of 267 to 269 °C.
Regarding `O=C(O)c1cccc(Oc2ccccc2Cl)c1[N+](=O)[O-]`, the melting point lay in the range of 185 to 187 °C.
Next, `O=C1c2ccccc2N(Cc2ccccc2)C2=NCCN12`: 203 to 205 °C; `CCOc1ccc2c(c1)n(C13CC4CC(CC(C4)C1)C3)c(=O)n2S(=O)(=O)c1ccc(N)cc1OC`: 248 °C.
As for `COc1ccc(S(N)(=O)=O)cc1C(=O)NC1CCN(CC2CC2)C1` (stereo not given), the melting point came to 150 °C.
On to `COc1ccc(N2CCCn3c2nc2c(Cl)ccc(C(OC(F)F)C(F)(F)F)c23)c(C)c1` (stereo not given), for which the melting point lay within 178 to 182 °C.
Turning to `O=C(c1ccc(Oc2ccccc2)cc1)c1ccc(C(=O)c2ccc(Oc3ccccc3)cc2)cc1`, the melting point was in the range of 212 to 214 °C.
For `C=CN1Cc2ccccc2-c2ccc(Cl)cc2C1=O`, the melting point lay within 170 to 172 °C.
Molecule `CCC(O)CNC(=O)c1n[nH]cc1NC(=O)c1ccccn1` (stereo not given) showed a melting point of 202 to 203 °C.
As for `Cc1ccc(O[C@H]2CCN(C(=O)OCc3ccccc3)C[C@H]2O)cc1C` (relative stereo), the melting point was in the range of 140 to 143 °C.
`Cc1nn(C)c(C#N)c1NC=O` gave a melting point of 135 °C.
`COC(=O)COc1ccc(-c2c3ccccc3cc3sc4cc(OCC(=O)OC)ccc4c23)cc1` returned a melting point of 152 to 154 °C.
Turning to `COCCn1nc(C)c(-c2ccc3c(c2)NC(=O)CO3)c1-c1ccc(F)cc1`, the melting point was found to be 174 °C.
`COCCNc1nc(-n2ccnc2)nc2ccc(CO)cc12` had a melting point of 165 to 168 °C.
As to `NNS(=O)(=O)c1cccc2cccnc12`, the melting point was 135 to 137 °C.
Next, `CCOP(=O)(/C=C/c1cn(-c2ccccc2)nc1OCc1ccc(OCc2nc(-c3ccc(C(=O)O)s3)oc2C)c(OC)c1)OCC`: 165 to 166 °C.
The molecule `Nc1ccc2oc3c(OC(F)F)ccc(C(=O)Nc4c(Cl)cncc4Cl)c3c2c1` came in with a melting point of 87 to 89 °C.
Next, `CC1COC(C(=O)C(C)(C)C)C(C(=O)C(C)(C)C)O1` (stereo not given): 123 °C.
Regarding `CCOC(=O)c1nc2ccc(I)cc2[nH]1`, the melting point lay in the range of 166 to 168 °C.
Next, `O=C(O)CCCC=CCCc1ccc(OCc2ccccc2)cc1`: 63 to 65 °C; `CCCn1c(=O)[nH]c2ccc(C(=O)c3ncc4ccc(C(=O)O)cn34)cc2c1=O`: 384 °C.
Next, `CCOC(C#Cc1cc(OC)c(OC)c(OC)c1)OCC`: 62.5 to 63 °C; `CC(C)(C)c1ccc(S(=O)(=O)C(CCl)Sc2ccccc2)cc1` (stereo not given): 104 to 106 °C; `CCOC(=O)c1cc(OCC)c(C(=O)OCC)c(OCC)c1`: 142 to 144 °C.
Regarding `C[C@@H](n1cnc2cc(-c3ccc(S(C)(=O)=O)cc3)sc2c1=O)[C@](O)(Cn1cncn1)c1ccc(F)cc1F`, the melting point is 281 to 282 °C.
In the case of `Cn1c2c(c3cc(OCc4ccccc4)ccc31)CC(C(N)=O)C2` (stereo not given), the melting point lay in the range of 145 to 148 °C.
In turn, `Cc1c(C)c2c(c(C)c1N)C(c1ccc(F)cc1)C(C)(C)O2` (stereo not given) returned a melting point of 126 to 127 °C.
On to `OCCc1nnc(S)s1`, for which the melting point was in the range of 101 to 103 °C.
In the case of `O=C(C=c1sc2n(c1=O)Cc1ccccc1N=2)NCc1ccccc1`, the melting point lay within 258 to 259 °C.
`Cc1ccc(C2CCN(C(=O)CCC(=O)c3ccc4c(c3)CNCC4)CC2)cc1` yielded a melting point of 119 to 120 °C.
Turning to `C#CCn1cc(C(=O)OCC)c(C(F)(F)F)c1`, the melting point is 58 °C.
Next, `COc1ccc2c(C)c([N+](=O)[O-])ccc2c1C(F)(F)F`: 141 to 142 °C; `C[C@H](CNc1nc(Cl)nc2c1ncn2[C@@H]1O[C@H](CO)[C@@H](O)[C@H]1O)Oc1ccccc1`: 175 to 177 °C; `CC(C(=O)NCC(F)(F)C(F)(F)F)C(=O)NC1C(=O)N(C)c2cc(F)ccc2OC1C` (stereo not given): 126 to 134 °C.
Take `CC1=C(NC=O)C(C)C(C)(C(C)C)C2=C1CC(C)(CI)O2` (stereo not given): the melting point was in the range of 145 to 147 °C.
`Cc1noc(NS(=O)(=O)c2ccccc2-c2cc3ccccc3[nH]2)c1C`: the melting point is 172 to 175 °C.
For the molecule `CC(=O)Nc1ccc(OCC(O)CN(C)C)c(NC(C)=O)c1` (stereo not given), the melting point lay within 118 to 120 °C.
In turn, `Nc1nc2cc(Br)ccn2n1` gave a melting point of 190 to 192 °C.
For `COC(=O)C=Cc1csc2ccccc12`, the melting point is 63 to 65 °C.
On to `N#CC(Br)(Br)c1ccccn1`, for which the melting point fell in the range of 59 to 61 °C.
Next, `COC(=O)CCC#Cc1cc(Cl)ccc1NS(=O)(=O)c1cccc(Cl)c1Cl`: 64 °C.
Turning to `CCOC(=O)c1nc(-c2ccc([N+](=O)[O-])cc2)[nH]c1-c1ccc(N(C)C)cc1`, the melting point fell in the range of 240 to 242 °C.
Next, `CNc1c([N+](=O)[O-])c(Br)nn1C`: 185 °C.
Molecule `CN(c1ccc(Cl)cc1[N+](=O)[O-])S(=O)(=O)c1ccc(Cl)s1` showed a melting point of 85 to 86 °C.
`NC(=O)c1sc(-n2cnc3cnc(Cl)cc32)cc1OCc1ccccc1C(F)(F)F` displayed a melting point of 248 to 249 °C.
In turn, `Oc1c(C2=CCCCC2)ccc2ccccc12` had a melting point of 82 to 83 °C.
`CC(C(=O)O)c1ccc2c(c1)CC(=O)c1ccccc1S2` (stereo not given) gave a melting point of 130 to 132 °C.
The molecule `Nc1nc2ccccc2c2c1ncn2CCCCNC(=O)c1ccncc1` yielded a melting point of 213 to 214 °C.
`COC1CC(C)(C)C(OC(=O)c2ccccc2)C(OC(=O)c2ccccc2)C=C1C` (stereo not given) registered a melting point of 78 to 80 °C.
Next, `NS(=O)(=O)c1cccc(-c2cc(-c3nc(-c4ccc(C(F)(F)F)cc4F)cc(C(F)(F)F)n3)ccn2)c1`: 210 °C.
Next, `Cc1c2c(cc3c(-c4ccccc4F)noc13)CC(C(=O)O)O2` (stereo not given): 188 to 189 °C.
With `c1ccc(CN2CCC(c3cc(-c4ccccc4)[nH]n3)CC2)cc1`, the melting point is 130 to 131 °C.

The values above are taken from a melting point compilation (Tetko et al.; mined from patent text by program, amines drawn as free bases though some values may be those of a salt).
